ChEMBL document CHEMBL5725973, “Pyrrolidine orexin receptor antagonists” (2018)

Legend:
[1] = target: T1, Orexin/Hypocretin receptor type 1 (Homo sapiens, UniProt O43613); test: (§1) FLIPR Ca2+ Flux Assay: All reagents were from GIBCO-Invitrogen Corp. The seeded plates are incubated overnight at 37° C. and 5% CO2. Ala-6,12 human orexin-A as the agonist is prepared as a 1 mM stock solution in 1% bovine serum albumin (BSA) and diluted in assay buffer (HBSS containing 20 mM HEPES, 0.1% BSA and 2.5 mM probenecid, pH7.4) for use in the assay at a final concentration of 70pM. Test compounds are prepared as 10 mM stock solution in DMSO, then diluted in 384-well plates, first in DMSO, then assay buffer. On the day of the assay, cells are washed 3 times with 100 μl assay buffer and then incubated for 60 min (37° C., 5% CO2) in 60 μl assay buffer containing 1 μM Fluo-4AM ester, 0.02% pluronic acid, and 1% BSA. The dye loading solution is then aspirated and cells are washed 3 times with 100 μl assay buffer. 30 μl of that same buffer is left in each well. Within the Fluorescent Imaging Plate Reader (FLIPR, Molecular Devices), test compounds are added to the plate in a volume of 25 μl, incubated for 5 min and finally 25 μl of agonist is added. Fluorescence is measured for each well at 1 second intervals for 5 minutes and the height of each fluorescence peak is compared to the height of the fluorescence peak induced by 70 pM Ala-6,12 orexin-A with buffer in place of antagonist. For each antagonist, IC50 value (the concentration of compound needed to inhibit 50% of the agonist response) is determined. Alternatively, compound potency can be assessed by a radioligand binding assay (described in Bergman et. al. Bioorg. Med. Chem. Lett. 2008, 18, 1425-1430) in which the inhibition constant (Ki) is determined in membranes prepared from CHO cells expressing either the OX1 or OX2 receptor. The intrinsic orexin receptor antagonist activity of a compound which may be used in the present invention may be determined by these assays.
T1 sequence (O43613 whole entry): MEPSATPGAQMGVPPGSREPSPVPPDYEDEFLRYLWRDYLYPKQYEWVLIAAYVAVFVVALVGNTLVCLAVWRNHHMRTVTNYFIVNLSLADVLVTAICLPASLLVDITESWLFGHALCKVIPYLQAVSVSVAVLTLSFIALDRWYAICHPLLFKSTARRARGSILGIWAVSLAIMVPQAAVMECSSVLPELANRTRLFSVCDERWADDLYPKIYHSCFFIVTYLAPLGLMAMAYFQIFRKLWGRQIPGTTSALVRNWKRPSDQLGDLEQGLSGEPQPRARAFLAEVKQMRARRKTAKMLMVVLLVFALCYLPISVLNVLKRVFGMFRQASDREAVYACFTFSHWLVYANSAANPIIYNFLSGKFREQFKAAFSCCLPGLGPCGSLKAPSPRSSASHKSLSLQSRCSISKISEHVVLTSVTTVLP

Orexin receptor type 2 = target: T2, Orexin receptor type 2 (Homo sapiens, UniProt O43614); test: as §1
T2 sequence (O43614 whole entry): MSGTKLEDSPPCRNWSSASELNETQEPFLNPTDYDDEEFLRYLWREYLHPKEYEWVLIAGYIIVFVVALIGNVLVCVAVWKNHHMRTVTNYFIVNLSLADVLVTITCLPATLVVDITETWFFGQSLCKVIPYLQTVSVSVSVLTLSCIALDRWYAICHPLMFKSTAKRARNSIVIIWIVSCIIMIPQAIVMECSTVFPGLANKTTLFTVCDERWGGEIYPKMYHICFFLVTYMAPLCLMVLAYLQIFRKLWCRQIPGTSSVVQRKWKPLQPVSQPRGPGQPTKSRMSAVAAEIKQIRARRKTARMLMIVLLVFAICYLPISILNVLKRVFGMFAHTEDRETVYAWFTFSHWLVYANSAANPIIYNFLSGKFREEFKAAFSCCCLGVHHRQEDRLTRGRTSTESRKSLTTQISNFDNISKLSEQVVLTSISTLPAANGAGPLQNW

Structure (SMILES) | IC50 [1] [nM] | IC50 (Orexin receptor type 2) [nM]
C[C@@H]1C[C@@H](Nc2cc(Br)ccn2)CN1C(=O)c1ccccc1-n1nccn1 | 1150 | 11.2
C[C@@H]1C[C@@H](Nc2cc(OCC(F)F)ccn2)CN1C(=O)c1ccccc1C1(C#N)CCC1 | 4040 | 58.3
